Assay results from patent publication US20220132856A1, “PHOTOSENSITIZER AND CHELATING AGENT COMBINATIONS FOR USE AS INSECTICIDES” (SUNCOR ENERGY INC., priority 2019, published 2022).

Experiments:
[1] = test system: Silverleaf whitefly (Bemesia argentifolii); experiment: Silverleaf whitefly suppression on sprayed poinsettia (Example 4); type: in vivo; conditions: whitefly nymphs, two sprays 7 days apart, sunlight 2 days; for Insects Suppression, % 6 DAT2: 6 days after second application; for Insects Suppression, % 13 DAT2: 13 days after second application
Experimental: The experiments were conducted in a greenhouse. Whiteflies were maintained on Common Poinsettia plants (Euphorbia pulcherrima) cv Prestige Red in the Greenhouse. Host plants and experimental plants were not initially exposed to pesticide treatments.
Experimental poinsettia plants were grown in 6.5″ plastic pots filled with Sunshine #4 soil mix. The plants were irrigated every day and soluble fertilizer 20-20-20 @ 200 ppm was applied twice weekly.
The poinsettia plants were placed into a whitefly infected greenhouse for 30 days to obtain uniform colonies of insect nymphs on the plants. After 30 days, the infested plants were moved from the infested greenhouse and placed outside of the greenhouse for a two-day adaptation period prior to the treatment. Whitefly nymph population was counted one day prior to the treatment using the discs method.
(§1) Two 5.47 cm^2 discs were taken from each replicate, insects were observed under a stereoscope and counted. The discs were taken from the randomly collected leaves from the mid to upper strata areas of the plant as this area is preferred by insects for eggs laying and nymphs development. Upon initiation of the experiment the whitefly population was considered uniform.
Treatments were applied two times with a 7-day interval using CO2 backpack sprayer with a single hollow cone nozzle (TVXK-3) at 40 psi. Plants were thoroughly sprayed with tested treatments and immediately exposed to direct sunlight for 2 days before returning to the greenhouse setting. For each treatment, six single plant replicates were used. After 2 days of outside sun exposure, all plants were carefully moved into the separate greenhouse and placed on a wire mesh bench in a Completely Randomized design. A second application of treatments was made 7 days after the first application using the same methodology.
The number of whitefly nymphs per disc was counted at 6 and 13 days after second foliar application (6 DAT2, 13DAT2). The Plants were evaluated for phytotoxicity at 6 days after each foliar spray.

[2] = test system: Common Poinsettia plants (Euphorbia pulcherrima) cv Prestige Red; experiment: Phytotoxicity on poinsettia plants (Example 4)
[3] = test system: Citrus Mealybug (Planococcus citri Risso); experiment: Mealybug exposure to direct spray in petri dishes, instar mortality; type: in vivo; conditions: mealybug instars sprayed in petri dishes, simulated daylight (LED) 14 h
Experimental: (§2) Colonies of Citrus Mealybug (Planococcus citri Risso) were maintained on Coleus plants (Solenostemon Scutellarioides L. Codd) grown in a Greenhouse under 24±4° C. and 16 h light/8 h dark photoperiod. […] Host plants were not initially exposed to pesticide treatments.
(§3) Small crowns of coleus shoots (4-6 cm in height, 6-7 leaves) were excised from the mature healthy plant and inserted into water-filled 50 ml plastic vials.
(§4) Homogenous mealybug instars-crawlers were carefully collected from the infested coleus plants using tip-moist soft fine paintbrush into a petri dish lined with filter paper. A total of 20 mealybug instars were released on upper leaves of each coleus shoot. […] Rack was located in the Plant Growth Room at 24-25° C.
(§5) Each treatment was replicated 4 times. Water treatment was used as a Control.
(§6) Insects were examined using 10×magnifying glass. […] The number of live and dead insects were recorded. Insect mortality was assessed for up to 96 hours after treatment (HAT-hours after treatment).
(§7) Percentage of citrus mealybug mortality for each treatment was calculated and data was subjected to One-way ANOVA combine with All Pairwise Multiple Comparison Procedures using the Fisher protected LSD mean separation test, […].
Mealybug instars were transferred into plastic containers lined with filter paper, sprayed and immediately exposed to light for […]. […]

[4] = test system: Common Poinsettia plants (Euphorbia pulcherrima); conditions: 0=healthy plants, 10=dead plants
Experimental: Poinsettia plants were evaluated for phytotoxicity after treatments. Phytotoxicity on the plants was rated 0 to 10, where 0=healthy plants, 10=dead plants at 6 DAA and 13DAA. Ratings were based on visual observations for symptoms such as chlorosis, necrosis, deformation, stunting and compared to plants in the untreated control.

[5] = test system: Silverleaf whitefly (Bemesia argentifolii); experiment: Silverleaf whitefly live nymph count on sprayed poinsettia (Example 3); type: in vivo; conditions: for Mean number of whitefly live nymphs/sample −1 DAA: 1 day before treatments application (baseline); for Mean number of whitefly live nymphs/sample 6 DAA: 6 days after first application, sunlight 8 h after spray; for Mean number of whitefly live nymphs/sample 13 DAA: 13 days after first application (6 days after application 2); for Mean number of whitefly live nymphs/sample 20 DAA: 20 days after first application (13 days after application 2); for Mean number of whitefly live nymphs/sample 28 DAA: 28 days after application 1 (21 days after application 2)
Experimental: The experiments were conducted in a greenhouse. Whiteflies were maintained on Common Poinsettia plants (Euphorbia pulcherrima) in the Greenhouse. Host plants and experimental plants were not initially exposed to pesticide treatments.
Experimental poinsettia plants were grown from the plug stage in 6.5″ plastic pots filled with Sunshine #4 soil mix. The plants were irrigated every day and soluble fertilizer 20-20-20 @ 200 ppm was applied twice weekly.
The poinsettia plants were placed for 7 days to whitefly infected the greenhouse to obtain uniform colonies of insect nymphs on introduced plants. After 7 days, the plants were removed from the infested greenhouse and whitefly nymph population was counted using the discs method.
as §1, with “each plant” for “each”, “taken” for “taken from the randomly collected leaves”
Treatments were applied with CO2 backpack sprayer with a single solid cone nozzle (TG1) at 60 psi. Plants were thoroughly sprayed with tested treatments and immediately exposed to direct sunlight for 8 h before returning to the greenhouse setting. For each treatment, five single plant replicates were used. After 8 h of outside sun exposure all plants were carefully moved into the greenhouse and placed on a wire mesh bench in RCB design. A second application of treatments was made 7 days after the first application using the same methodology.
The number of whitefly nymphs per disc was counted at 1 day before treatments application (DAA), 6 days after first application (DAA), 13 days after first application (or 6 days after application 2), 20 days after first application 1 (or 13 days after application 2) and 28 days after application 1 (or 21 days after application 2).

[6] = test system: Citrus Mealybug (Planococcus citri Risso); experiment: Mealybug exposure to direct spray on plants (coleus shoots), instar mortality; type: in vivo
Experimental: as §2, §3, §4, §5, §6, §7
Mealybug were introduced to coleus shoots. Two hours later, the shoots were sprayed with photosensitizer and placed under the light for 14 hours.

[7] = test system: potato aphids (Macrosiphum euphorbiae); conditions: for Mean Insects Mortality, % 24 HAT / Mean Insects Mortality, % 48 HAT: LED light exposure 14 h after treatment
Experimental: Potato aphids (Macrosiphum euphorbiae) were obtained from a colony maintained on Bell pepper (Capsicum annuum L.) plants grown in 1-gal plastic pots containing soil mix for greenhouse use (Sunshine LC1, Sun Gro Horticulture Canada Ltd.). Plants were watered as needed and fertilized twice a week with 20-20-20 water soluble fertilizers. Host plants were not exposed to pesticide treatments.
Pepper leaves infested with aphid nymphs were collected and each leaf was placed in 50 ml vials filled with water. Vials were covered with the lead with a small opening to prevent insects from drowning. Vials with host plant leaf infested with insects were placed in 500 ml transparent plastic containers and covered with transparent leads.
All treatments were applied as a fine spray using a hand-held plastic spray bottle. Each treatment was replicated 4 times. Water treatment was used as a Control.
After 14 h of exposure to LED light or dark insects were kept at a regular 14 h/10 h (light/night) photoperiod. Containers with insects were arranged in a randomized fashion. The experimental rack was placed in the Plant Growth Room at 24-25° C.
The number of live aphids on each leaf (replicate/container) was counted before application of the treatments, as well as 24 h and 48 h after the treatments. The insects were examined using 10× magnifying glass. Aphids were considered dead if no movement was detected after mechanical stimulation with the paintbrush.
Percentage of mortality was calculated by using the numbers of live and dead aphids. Percentage of mortality was rated as zero, when number of insects in the sample increased during the experiment (aphids females gave birth to nymphs).

[8] = test system: German cockroach (Blatella germanica); experiment: German cockroach nymph suppression, treatment fed in 1% sucrose solution, light or dark; type: in vivo; conditions: cockroach nymphs
Experimental: A small German cockroach colony (Blatella germanica) was purchased from Benzon Research (USA). Cockroach mix sex nymphs were used as model insect.
The experiments were conducted in a lab. Insectary at 25° C. in light and dark conditions. Light condition: 12 h light/12 h dark photoperiod. During the light period insects were exposed to Spectrum Physio Spec Indoor LED light 250 μmol m^−2 s^−1 Dark condition: insects were kept in complete dark. Insects were fed prior to treatments with 1% sucrose solution and were anesthetizing in the fridge for a few minutes before handling.
Ten homogenous cockroach nymphs (3-4 instar) were carefully transferred into each half pint clear glass jar abraded internally to provide surface for climbing and lined with 9 cm in diameter filter paper. The treatments were administered to cockroaches in a 1% sucrose solution positioned in 10 ml glass vials abraded externally for easy climbing insects and placed in jars. Fresh treatment solutions were replaced each 3 days. Glass jars were covered with mesh. […] Completely randomized design with 4 replications per treatment was used.
Treated insects were kept under specific conditions for 14 days and mortality count was performed at 7 and 14 days after exposure to treatments.

Compound | Insects Suppression, % 6 DAT2 [1] [%] | Insects Suppression, % 13 DAT2 [1] [%] | Phytotoxicity % 13 DAT2 [2] [%] | Phytotoxicity (0-10) 6 DAA [4] | Phytotoxicity (0-10) 13 DAA [4] | Phytotoxicity (0-10) 20 DAA [4] | Phytotoxicity (0-10) 28 DAA [4] | Mean number of whitefly live nymphs/sample −1 DAA [5] [nymphs/sample] | Mean number of whitefly live nymphs/sample 6 DAA [5] [nymphs/sample] | Mean number of whitefly live nymphs/sample 13 DAA [5] [nymphs/sample] | Mean number of whitefly live nymphs/sample 20 DAA [5] [nymphs/sample] | Mean number of whitefly live nymphs/sample 28 DAA [5] [nymphs/sample] | Mean Insects Mortality, % 24 HAT ([7]; 24 HAT) [%] | Mean Insects Mortality, % 48 HAT ([7]; 48 HAT) [%] | other results
O=S(=O)([O-])c1ccc(-c2c3nc(c(-c4ccc(S(=O)(=O)[O-])cc4)c4ccc([nH]4)c(-c4ccc(S(=O)(=O)O)cc4)c4nc(c(-c5ccc(S(=O)(=O)[O-])cc5)c5ccc2[nH]5)C=C4)C=C3)cc1.[Na+].[Na+].[Na+] [0.1% TPPS-Na3, meso-tetra-(4-sulfonatophenyl) porphyrin trisodium salts] | 37 | 52 | 0 |  |  |  |  |  |  |  |  |  |  |  | 
C=CC1=C(C)c2cc3[nH]c(cc4nc(cc5[nH]c(cc1n2)c(C)c5CCC(=O)[O-])C(CCC(=O)[O-])=C4C)c(C)c3C=C.[Na+].[Na+] [0.1% PPIX, Protoporphyrin sodium salts] | 41 | 28 | 0 |  |  |  |  |  |  |  |  |  |  |  | 
Mg-Chlorophyllin [0.2 wt % MgChln] |  |  |  | 0 | 0 | 0 | 0 | 111.4 | 68 | 56.6 | 74.8 | 30.1 | 24 | 24 | Insect Mortality, % 24 HAT ([3]; 24 hours after treatment): 32.8%; Insect Mortality, % 96 HAT ([3]; 96 hours after treatment): 46.3%; Insect mortality, in words ([6]; infested plants sprayed, at 24 and 96 HAT): significant insect mortality; Insect Mortality, % 24 HAT ([6]; mealybugs on coleus shoots sprayed, light 14 h, 24 hours after treatment): 50%; Insect Mortality, % 96 HAT ([6]; mealybugs on coleus shoots sprayed, light 14 h, 96 hours after treatment): 68.8%; Mean Insect Mortality, % 24 HAT ([7]; no light exposure (dark), dark exposure 24 h, 24 HAT): 5%; Mean Insect Mortality, % 48 HAT ([7]; no light exposure (dark), dark exposure 24 h, 48 HAT): 17%
chlorin e6 [0.1% Ce6] | 27 | 28 | 0 |  |  |  |  |  |  |  |  |  |  |  | 
O=C([O-])CN(CCN(CC(=O)[O-])CC(=O)O)CC(=O)O.[Na+].[Na+] [0.1% Na2EDTA, Na2EDTA] | 36 | 31 | 0 | 0 | 0 | 0 | 0 | 93 | 53 | 69.7 | 89.9 | 44.3 | 6 | 20 | Insects Suppression %, 14 DAT, Light (12/12 h light-dark) ([8]; LED 250 μmol m^−2 s^−1, 12 h light/12 h dark): 33%; Insects Suppression %, 14 DAT, Dark ([8]; complete dark): 0%
